Columns and labels:
NET [1] = molecular target: T1, NET (Homo sapiens, UniProt P23975); experiment: ASP+ accumulation in HEK-hNET cells by confocal fluorescence microscopy (phase I binding, phase II transport); set-up: NET-mediated ASP accumulation after pre-incubation (endocytosis test): dose or concentration left out as unconfirmed; settings: for phase II (ASP+ transport) slope in the presence of the agent: 10 min pre-incubation with 10 μM cocaine or 30 μM NE; for phase II (ASP+ transport) slope in the presence of the agent / phase I (ASP+ binding) slope in the presence of the agent: then 2 μM ASP+, gramicidin 10 mg/mL 15 min before ASP+; for phase I (ASP+ binding) slope in the presence of the agent: 10 min pre-incubation with 10 μM desipramine, 10 μM cocaine or 30 μM NE
NET [2] = molecular target: T1, NET; experiment: [3H]NE accumulation (radiolabeled transport assay) in hNET-transfected HEK-293 cells; assay type: cell-based; set-up: expressed in transfected cells; settings: Cheng-Prusoff correction, non-specific by 10 μM desipramine, N=5, mean±S.E.M., read-out: Ki, inhibition of [3H]NE accumulation
Experimental: FIG. 1. MPP^+ and ASP^+ inhibit NE accumulation. [^3H]NE accumulation was measured in the hNET-transfected HEK-293 cells in the presence of increasing concentrations of ASP^+ or MPP^+ and normalized to similar data in the absence of an inhibitor. […]. The data were fit to NE transport remaining by the equation y=100/(1+([I]/IC50)^n), where [I] is the concentration of ASP^+ or MPP^+ and Ki values were determined using Cheng-Prusoff correction for substrate concentration. […] Values are represented as means±S.E.M., N=5.
All accumulation studies were performed at room temperature (22° C.) unless otherwise indicated. HEK-hNET cells were plated on poly-L-lysine coated 24-well tissue culture plates at 10^5 cells per well three days prior to performing transport assays. The cells were at approximately 90% confluence on the third day. The medium was removed by aspiration. Cells were then pre-incubated for 10 min in Krebs-Ringer's-Hepes (KRH: in mM 130 NaCl, 1.3 KCl, 2.2 CaCl2, 1.2 MgSO4, 1.2 KH2PO4, 10 Hepes, and 1.8 g/L glucose, pH 7.4) medium with or without 10 μM desipramine. […]. Pargyline (10 μM) and ascorbic acid (10 μM) were added to prevent metabolism and oxidation of NE, respectively. The assay mixture was aspirated after 10 minutes and cells were washed three times with 4° C. […] Accumulated [^3H]NE was determined by liquid scintillation of 1% (w/v) sodium dodecylsulphate solubilized cells. […]

OCT = settings: 10 μM; cited from earlier work
NET [3] = assay type: cell-based; settings: 2 μM ASP+, 10 min pre-incubation with 10 μM desipramine
Experimental: SCG neurons were dissociated by trituration followed by digestion with 0.25% trypsin and 0.3% collagenase. Non-neuronal cells were removed by preplating on uncoated, Falcon 60 mm plates. Neurons were cultured on poly-L-ornithine/laminin/poly D-lysine coated MatTek Dishes at a density of 3000-4000 cells/well in F-14^+ media containing 5% fetal calf serum, 2 mM L-glutamine, 60 ng/ml progesterone, 16 mg/ml putrescine, 400 ng/ml L-thyroxine, 38 ng/ml sodium selenite, 340 ng/ml tri-iodothyroxine, 5 mg/ml insulin, penicillin/streptomycin, 10 μM fluorodeoxyuridine and 20 ng/ml NGF. The neurons were maintained for 3-5 days in the presence of NGF before use.
The interactions of ASP^+ with NET in primary tissue culture neurons were also examined.

T1 sequence (P23975 whole entry): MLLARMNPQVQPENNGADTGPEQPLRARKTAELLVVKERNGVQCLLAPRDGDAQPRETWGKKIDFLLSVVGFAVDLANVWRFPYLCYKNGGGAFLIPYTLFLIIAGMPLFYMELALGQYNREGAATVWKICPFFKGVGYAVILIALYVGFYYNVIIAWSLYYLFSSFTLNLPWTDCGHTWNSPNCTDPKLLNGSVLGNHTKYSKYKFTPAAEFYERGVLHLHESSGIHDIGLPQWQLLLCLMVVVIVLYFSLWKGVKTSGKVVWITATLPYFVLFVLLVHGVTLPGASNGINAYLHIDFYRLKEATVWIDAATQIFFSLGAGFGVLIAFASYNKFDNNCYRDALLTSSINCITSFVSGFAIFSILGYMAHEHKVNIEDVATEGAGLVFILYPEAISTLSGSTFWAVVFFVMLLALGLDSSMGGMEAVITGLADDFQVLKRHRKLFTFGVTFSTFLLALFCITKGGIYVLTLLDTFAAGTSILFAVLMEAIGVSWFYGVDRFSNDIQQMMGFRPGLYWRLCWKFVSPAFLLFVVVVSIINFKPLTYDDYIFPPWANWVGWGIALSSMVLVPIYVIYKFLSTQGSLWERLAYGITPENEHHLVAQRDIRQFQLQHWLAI

NC[C@H](O)c1ccc(O)c(O)c1 [NE]
phase II (ASP+ transport) slope in the presence of the agent (NET [1]): reduced | phase I (ASP+ binding) slope in the presence of the agent (NET [1]): insignificant | effect on ASP+ accumulation in hNET-expressing HEK cells (NET [1]; summary statement): competed for

OC[C@H]1O[C@@](CO)(O[C@H]2O[C@H](CO)[C@@H](O)[C@H](O)[C@H]2O)[C@@H](O)[C@@H]1O [sucrose]
NET-mediated ASP accumulation after pre-incubation (endocytosis test) (NET [1]; thirty-minute pre-incubation): unaffected

C[n+]1ccc(-c2ccccc2)cc1 [MPP^+]
Ki (NET [2]): 600 ± 67 nM

Gramicidin
phase II (ASP+ transport) slope in the presence of the agent (NET [1]): reduces the slope | phase I (ASP+ binding) slope in the presence of the agent (NET [1]): reduces the slope

CNCCCN1c2ccccc2CCc2ccccc21 [desipramine]
effect on OCT activity (OCT): without affecting | sensitivity of ASP+ accumulation in SCG cells to desipramine (NET [3]): desipramine sensitive

From patent publication US7318917B2, “Rapid assays for neurotransmitter transporters” (Vanderbilt University, priority 2002, dated 2008)
